From US20190330167A1, “ACTIVATORS OF HIV LATENCY” (priority 2016, published 2019)

System: HIV-1 long terminal repeat (LTR)-driven luciferase reporter gene in FlipIn.FM HEK293 cells
Experiment: cells
Format: cell-based
Procedure: FIG. 44. […] The FlipIn.FM model of HIV-1 latency was treated with JQ1 (+) and DP#14 (Compound 7) alone at 10 μM and in combination, and the HIV-1 gene expression measured 48 hrs post treatment. Error bars represent standard deviation of n=3 experiments. OPTI represents media alone, without DP#14.
FIG. 46. […] The FlipIn.FM model of HIV-1 latency was treated with PFI-1 and DP#14 alone at 10 μM and in combination, and the HIV-1 gene expression measured 48 hrs post treatment. Error bars represent standard deviation of n=3 experiments. OPTI represents media alone, without DP#14.
Explicitly, HEK293 derived FlipIn-FM and FlipIn-RV dual reporter cells each include a single stable HIV-1 long terminal repeat (LTR)-driven luciferase reporter genes, with a second complimentary non-HIV (off-target) luciferase reporter. These cell lines model post integration latency and read-through transcription by expressing a low level of HIV-1 Tat protein via a native Internal Ribosome Entry Site (IRES) found within Tat, from a chimeric cellular-tat gene cassette. FlipIn-FM and FlipIn-RV clones were chosen for low basal levels of LTR activity and high responsiveness to Tat as well as many Latency Reversing Agents (LRAs).
The dual reporter cell lines contain three stably integrated constructs that together allow for detection of novel LRAs, capable of potent and specific HIV reactivation. The FlipIn.FM line contains a proviral LTR-driven nef/CBR reporter fusion gene, allowing for detection of viral gene expression. A second CMV-driven CBG luciferase reporter allows for detection of off target drug effects, including non-specific activation and drug toxicity. The third construct contains the first coding exon of HIV-1 tat, within human Growth Hormone (hGH) as a chimeric gene, expressing HIV-1 Tat protein from an IRES mechanism that underlies the tat exon. This construct models read-through transcription and the low level of Tat protein expression that occurs during post integration latency. The counter screening reverse cell line, FlipIn.RV, contains the same three components with the Click Beetle Luciferase genes in the opposite orientation (LTR-CBG and CMV-CBR) for counter screening.
Compounds were evaluated in an 11-point titration using normal CMV-CBG/LTR-CBR reporter cell line and an 11 point reverse CMV-CBR/LTR-CBG reporter cell line.
The FlipIn cell lines were therefore designed with a dual purpose, to detect novel compounds that reactivate HIV-1 and to also screen out compounds that behaved in a largely non-specific manner. To achieve the latter, the cell lines contain an “off target” reporter gene construct, driven by the unrelated CMV-IE promoter, that allows for the detection of drug mediated off target effects including global gene activation as well as possible toxicity.
The HIV-LTR driven latent reporter gene identifies the HIV-specific activation, and the term “global reporter” is interchangeable with “off target reporter” and refers to the unrelated CMV-IE promoter driven reporter gene, which is used as a surrogate for global gene activation. […] The highest concentration tested here was 40 μM.

SMILES: O=C(CCCOc1ccccc1)Nc1ncc(Br)s1 [Compound 7]
- fold change in HIV-1 gene expression over the unstimulated baseline (FlipIn.FM model, alone at 10 μM and in combination, 48 hrs post treatment): 4.2 fold
- EC50 (Human immunodeficiency virus 1, HEK293, HIV-LTR driven latent reporter, 11-point, 2-fold dilution series, highest concentration 40 μM, read-out: Latent reporter Av EC50): 1640 nM
